Where two headings read alike, the source gives them in different places.
Assays:
Assay in all cases: Measurement of antifungal activity (minimum inhibitory concentration), agar dilution
Format in all cases: cell-based
T. violaceum TIMM1264 = settings: Trichophyton violaceum, 168 h, Sabouraud's agar, one week at 27° C., read-out: MIC value (minimum compound concentration that definitely inhibited any visible growth)
Procedure: (§1) Measurement of Antifungal Activity (Measurement of Minimum Inhibitory Concentration)
(§2) Antifungal activity of representative compounds of the present invention against dermatophytes was investigated.
(§3) Briefly, strains of dermatophytes to be tested were grown on slant media prepared with Sabouraud's agar (product of Nissuiseiyaku; pepton 1.0%, glucose 4.0%, agar 1.5%, pH 5.9) at 27° C. for two weeks, so as to allow sufficient production of conidiospores. Subsequently, sterilized saline solution containing 0.05% (wt/vol) TWEEN 80 was added thereto, and while the surface of the each medium was scraped with a platinum loop, the conidiospores were deaggregated and suspended in the saline solution. The suspension was filtered through a double face sterilized gauze sheet so as to remove agar and hypha pellets. The filtrate was diluted with a saline solution so as to make the concentration of the conidiospores decrease to 10^6/ml by use of a cytometer, and the resultant dilute filtrate served as a test dermatophytes solution. Meanwhile, a stock solution was prepared by adding 1 ml of dimethylsulfoxide to 10 mg of a compound to be tested. An aliquot (500 μl) of the stock solution was combined with dimethylsulfoxide (500 μl), to thereby prepare a 2-fold dilute solution. Dilution was similarly repeated until 13 different dilute solutions ranging from 10 to 0.0025 mg/ml (concentrations of the ultimate test system: 100-0.025 μg/ml) were obtained. 100 μl each of the diluted solutions of the test compound was dispensed into the sterilized petri dish. A Sabouraud's agar (pepton 1.0%, glucose 4.0%, agar 1.5%, pH 5.9; 10 ml), which had been sterilized and dissolved, was added thereto, and the mixture was thoroughly mixed and solidified. Next, the above-prepared test dermatophytes solution was planted in amounts of 5 μl by use of a microplanter.

T. rubrum IF09185 = settings: Trichophyton rubrum, 168 h, Sabouraud's agar, one week at 27° C., read-out: MIC value (minimum compound concentration that definitely inhibited any visible growth)
Procedure: as §1, §2, §3

[1] = tested on: T. mentagrophytes TIMM1189; settings: Trichophyton mentagrophytes, 168 h, Sabouraud's agar, one week at 27° C., read-out: MIC value (minimum compound concentration that definitely inhibited any visible growth)
Procedure: as §1, §2, §3

[2] = tested on: T. mentagrophytes TIMM1177; settings: Trichophyton mentagrophytes, 168 h, Sabouraud's agar, one week at 27° C., read-out: MIC value (minimum compound concentration that definitely inhibited any visible growth)
Procedure: as §1, §2, §3

[3] = tested on: T. mentagrophytes IF05811; settings: Trichophyton mentagrophytes, 168 h, Sabouraud's agar, one week at 27° C., read-out: MIC value (minimum compound concentration that definitely inhibited any visible growth)
Procedure: as §1, §2, §3

M. gypseum IF08231 = settings: Nannizzia gypsea, 168 h, Sabouraud's agar, one week at 27° C., read-out: MIC value (minimum compound concentration that definitely inhibited any visible growth)
Procedure: as §1, §2, §3

T. rubrum IF05808 = settings: Trichophyton rubrum, 168 h, Sabouraud's agar, one week at 27° C., read-out: MIC value (minimum compound concentration that definitely inhibited any visible growth)
Procedure: as §1, §2, §3

M. canis TIMM0760 = settings: Microsporum canis, 168 h, Sabouraud's agar, one week at 27° C., read-out: MIC value (minimum compound concentration that definitely inhibited any visible growth)
Procedure: as §1, §2, §3

[4] = tested on: T. mentagrophytes IF07552; settings: Trichophyton mentagrophytes, 168 h, Sabouraud's agar, one week at 27° C., read-out: MIC value (minimum compound concentration that definitely inhibited any visible growth)
Procedure: as §1, §2, §3

Structure (SMILES) | MIC (T. violaceum TIMM1264) [µg/mL] | MIC (T. rubrum IF09185) [µg/mL] | MIC [1] [µg/mL] | MIC [2] [µg/mL] | MIC [3] [µg/mL] | MIC (M. gypseum IF08231; H. gypseum IF08231 (Table 1)) [µg/mL] | MIC (T. rubrum IF05808) [µg/mL] | MIC (M. canis TIMM0760) [µg/mL] | MIC [4] [µg/mL] | MIC (M. gypseum IF08231; M. gypseum IF08231 (Table 2)) [µg/mL]
C=C(C)c1cccc(CN(C)CC=Cc2ccccc2)c1.Cl [Compound 48, N-Cinnamyl-N-methyl-(3-isopropenylbenzyl)amine Hydrochloride] | 6.25 | 1.56 | 6.25 | 6.25 | 6.25 | 6.25 | 1.56 | 1.56 | 3.12 | –
C=Cc1cccc(CN(C)C/C=C/C#CC(C)(C)C)c1.Cl [Compound 10, trans-N-(6,6-Dimethyl-2-hepten-4-ynyl)-N-methyl-(3-vinylbenzyl)amine Hydrochloride] | 0.78 | 0.39 | 0.39 | 0.39 | 0.39 | 0.78 | 0.39 | 0.2 | 0.39 | –
C=C(C)c1cc(C)cc(CN(C)C/C=C/C#CC(C)(C)C)c1.Cl [Compound 19, trans-N-(6,6-Dimethyl-2-hepten-4-ynyl)-N-methyl-(3-isopropenyl-5-methylbenzyl)amine Hydrochloride] | 0.1 | 0.1 | 0.05 | 0.1 | 0.1 | 0.2 | 0.1 | 0.1 | 0.05 | –
C=C(CC)c1cccc(CN(C)Cc2ccc(C(C)(C)C)cc2)c1.Cl [Compound 95, N-(4-tert-Butylbenzyl)-N-methyl-[3-(1-ethylvinyl)benzyl]amine Hydrochloride] | 0.78 | 0.39 | 0.78 | 0.78 | 1.56 | – | 0.39 | 0.2 | 0.78 | 3.12
C=C(C)c1ccccc1CN(C)C/C=C/C#CC(C)(C)C.Cl [Compound 39, trans-N-(6,6-Dimethyl-2-hepten-4-ynyl)-N-methyl-(2-isopropenylbenzyl)amine Hydrochloride] | 12.5 | 3.12 | 6.25 | 6.25 | 6.25 | 12.5 | 3.12 | 6.25 | 6.25 | –

Source: patent US6586633B1, “Amine derivatives” (Pola Chemical Industries, Inc., priority 2001, dated 2003)
